For orientation: Ki means a dissociation constant, usually derived from enzyme kinetics or from competition with a known ligand. Low readings indicate a stronger hold on the target, high ones a looser hold on the target.

Assay [1] addresses T1, MASP-2 (CCP1-CCP2-SP) (Homo sapiens, UniProt O00187).
T1 construct: 15 μL of Enzyme MASP-2 (CCP1-CCP2-SP) in Assay Buffer
Description: Enzymatic assay for MASP-2 inhibitory activity (fluorogenic substrate). The class given is biochemical. The method, boiled down:
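Fluorescence was normalized between no-enzyme and DMSO-only controls to derive % activity, with IC50 taken as equivalent to Ki except for tight-binding inhibitors. Reactions ran 20 min at room temperature in HEPES pH 7.4/NaCl/Tween 20 buffer, using the C2-derived fluorogenic substrate, before acetic acid stop.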

The target in assay [2] is T2, human α-thrombin (Homo sapiens, UniProt P00734).
T2 construct: enzyme (human α-thrombin (BioPharm® Lab.)) in assay buffer; purchased BioPharm® Lab
Description: Enzymatic assay for thrombin (fluorogenic peptide substrate Boc-VPR-AMC). Format: biochemical. The method, boiled down: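 Assay conditions kept the reaction linear in time, enzyme and substrate, so IC50 approximated Ki apart from tight- or slow-binding cases. Boc-VPR-AMC cleavage by human α-thrombin proceeded 20 min at room temperature in Hepes pH 7.4/NaCl/Tween 20 buffer, then was acid-quenched and read by fluorescence.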

Where a name gives a salt, the structure may show the parent alone. Some results are limits rather than exact numbers.

T1 sequence (O00187 445-686 limits assumed): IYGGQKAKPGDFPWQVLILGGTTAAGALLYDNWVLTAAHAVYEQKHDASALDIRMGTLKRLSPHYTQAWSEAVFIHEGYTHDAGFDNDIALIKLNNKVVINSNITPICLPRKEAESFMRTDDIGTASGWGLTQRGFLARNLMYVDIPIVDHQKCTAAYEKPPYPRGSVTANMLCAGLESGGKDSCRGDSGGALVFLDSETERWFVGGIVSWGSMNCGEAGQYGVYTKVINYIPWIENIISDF
T1 sequence (O00187 287-444 partner limits assumed): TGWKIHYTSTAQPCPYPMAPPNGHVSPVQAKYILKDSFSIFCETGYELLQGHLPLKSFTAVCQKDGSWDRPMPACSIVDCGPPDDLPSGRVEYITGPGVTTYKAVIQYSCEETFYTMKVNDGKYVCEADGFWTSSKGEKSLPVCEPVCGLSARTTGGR

Turning to `Cc1ccc(C)c(CNc2ncc3n(c2=O)[C@H](C(=O)N[C@H](C)c2ccc(N)nc2C)CC3)c1` [Compound 237], the inhibition constant Ki in assay [1] was less than 500 nM; in assay [2], 500 to 2500 nM.
For `Cc1cccc([C@@H](C)Nc2ncc3n(c2=O)[C@H](C(=O)NCc2cc4c(s2)CNC4)CC3)c1` [Compound 90, (S)—N-((5,6-dihydro-4H-thieno[2,3-c]pyrrol-2-yl)methyl)-4-oxo-3-(((R)-1-(m-tolyl)ethyl)amino)-4,6,7,8-tetrahydropyrrolo[1,2-a]pyrazine-6-carboxamide], in that order: less than 500 nM and 2500 to 10000 nM.
For the compound `CC(C)c1cccc(CNc2ncc3n(c2=O)[C@H](C(=O)NCc2ccc(N)nc2)CC3)c1` [Compound 207, (S)—N-((6-aminopyridin-3-yl)methyl)-3-((3-isopropylbenzyl)amino)-4-oxo-4,6,7,8-tetrahydropyrrolo[1,2-a]pyrazine-6-carboxamide trifluoroacetate], the inhibition constant (Ki) in assay [1] and in assay [2] was less than 500 nM in each case.
As for `Cc1cc(C)cc(CNc2ncc3n(c2=O)[C@H](C(=O)NCc2cccc4[nH]ncc24)CC3)c1` [Compound 282, (S)-N-((1H-indazol-4-yl)methyl)-3-((3,5-dimethylbenzyl)amino)-4-oxo-4,6,7,8-tetrahydropyrrolo[1,2-a]pyrazine-6-carboxamide], the Ki in assay [1] lay in the range of 500 to 2500 nM; in assay [2] it was 2500 to 10000 nM.
In the same order, the values of `CC(C)(C)[C@@H](Nc1ncc2n(c1=O)[C@H](C(=O)NCc1cc3c(s1)CNC3)CC2)c1ccccc1` [Compound 264, (S)-N-((5,6-dihydro-4H-thieno[2,3-c]pyrrol-2-yl)methyl)-3-(((R)-2,2-dimethyl-1-phenylpropyl)amino)-4-oxo-4,6,7,8-tetrahydropyrrolo[1,2-a]pyrazine-6-carboxamide trifluoroacetate] are less than 500 nM and less than 500 nM.
In the same order, the values of `CC(C)[C@@H](Nc1ncc2n(c1=O)[C@H](C(=O)N[C@@H](C)c1cc3c(s1)CNC3)CC2)c1ccccc1` [Compound 275, (S)-N-((S)-1-(5,6-dihydro-4H-thieno[2,3-c]pyrrol-2-yl)ethyl)-3-(((R)-2-methyl-1-phenylpropyl)amino)-4-oxo-4,6,7,8-tetrahydropyrrolo[1,2-a]pyrazine-6-carboxamide trifluoroacetate] are less than 500 nM and greater than 25000 nM.
For `O=C(NCc1cc2c(s1)CNC2)[C@@H]1CCc2cnc(NC3CCc4ccccc43)c(=O)n21` (stereo partly drawn) [Compound 235], in that order: less than 500 nM and less than 500 nM.
For the compound `C[C@@H](NC(=O)[C@@H]1CCc2cnc(N[C@@H](c3ccccc3)C3CC3)c(=O)n21)c1cc2c(s1)CNC2` [Compound 272, (S)-3-(((R)-cyclopropyl(phenyl)methyl)amino)-N-((R)-1-(5,6-dihydro-4H-thieno[2,3-c]pyrrol-2-yl)ethyl)-4-oxo-4,6,7,8-tetrahydropyrrolo[1,2-a]pyrazine-6-carboxamide trifluoroacetate], the inhibitory constant (Ki) in assay [1] was less than 500 nM; in assay [2], 2500 to 10000 nM.
In the same order, the values of `Cc1ccc(F)cc1CNc1ncc2n(c1=O)[C@H](C(=O)NCc1ccc(N)nc1C)CC2` [Compound 65, (S)-N-((6-amino-2-methylpyridin-3-yl)methyl)-3-((5-fluoro-2-methylbenzyl)amino)-4-oxo-4,6,7,8-tetrahydropyrrolo[1,2-a]pyrazine-6-carboxamide] are less than 500 nM and less than 500 nM.
In the case of `Cc1nc(N)ccc1CNC(=O)[C@@H]1CCc2cnc(NCc3cccc(C(C)(C)O)c3)c(=O)n21` [Compound 66, (S)-N-((6-amino-2-methylpyridin-3-yl)methyl)-3-((3-(2-hydroxypropan-2-yl)benzyl)amino)-4-oxo-4,6,7,8-tetrahydropyrrolo[1,2-a]pyrazine-6-carboxamide], the Ki in assay [1] and in assay [2] was less than 500 nM each time.
Take `O=C(NCc1cc2cnccc2[nH]1)[C@@H]1CCc2c(Cl)nc(NC3(c4ccccc4)CC3)c(=O)n21` [Compound 106, (S)-N-((1H-pyrrolo[3,2-c]pyridin-2-yl)methyl)-1-chloro-4-oxo-3-((1-phenylcyclopropyl)amino)-4,6,7,8-tetrahydropyrrolo[1,2-a]pyrazine-6-carboxamide]: the Ki in assay [1] was less than 500 nM; in assay [2] it was 2500 to 10000 nM.
In the same order, the values of `Cc1cc(C)cc(CNc2ncc3n(c2=O)[C@H](C(=O)NCc2cc4cnccc4[nH]2)CC32CC2)c1` [Compound 123, (S)-N-((1H-pyrrolo[3,2-c]pyridin-2-yl)methyl)-3′-((3,5-dimethylbenzyl)amino)-4′-oxo-6′,7′-dihydro-4′H-spiro[cyclopropane-1,8′-pyrrolo[1,2-a]pyrazine]-6′-carboxamide trifluoroacetate] are less than 500 nM and 500 to 2500 nM.
For `Cc1cc(C)cc(CNc2ncc3n(c2=O)[C@H](C(=O)NCc2ccc(N)nc2C)CC32CC2)c1` [Compound 122, (S)—N-((6-amino-2-methylpyridin-3-yl)methyl)-3′-((3,5-dimethylbenzyl)amino)-4′-oxo-6′,7′-dihydro-4′H-spiro[cyclopropane-1,8′-pyrrolo[1,2-a]pyrazine]-6′-carboxamide trifluoroacetate], in that order: less than 500 nM and less than 500 nM.
For `Cc1cc2[nH]c(CNC(=O)[C@@H]3CCc4cnc(NCc5cccc(C)c5C)c(=O)n43)cc2cn1` [Compound 58, (S)-3-((2,3-dimethylbenzyl)amino)-N-((6-methyl-1H-pyrrolo[3,2-c]pyridin-2-yl)methyl)-4-oxo-4,6,7,8-tetrahydropyrrolo[1,2-a]pyrazine-6-carboxamide], in that order: less than 500 nM and greater than 25000 nM.
Consider `Cc1ccc(F)cc1CNc1ncc2n(c1=O)[C@H](C(=O)NCc1cc3cnccc3[nH]1)CC2` [Compound 63, (S)-N-((1H-pyrrolo[3,2-c]pyridin-2-yl)methyl)-3-((5-fluoro-2-methylbenzyl)amino)-4-oxo-4,6,7,8-tetrahydropyrrolo[1,2-a]pyrazine-6-carboxamide], for which the inhibitory constant (Ki) in assay [1] is less than 500 nM; in assay [2] it was 500 to 2500 nM.
In the same order, the values of `O=C(NCc1cc2cnccc2[nH]1)[C@@H]1CCc2cnc(NCc3cccc(-c4ccccc4)c3)c(=O)n21` [Compound 147, (S)—N-((1H-pyrrolo[3,2-c]pyridin-2-yl)methyl)-3-(([1,1′-biphenyl]-3-ylmethyl)amino)-4-oxo-4,6,7,8-tetrahydropyrrolo[1,2-a]pyrazine-6-carboxamide] are less than 500 nM and 2500 to 10000 nM.
With `CC(C)[C@@H](Nc1ncc2n(c1=O)[C@H](C(=O)NCc1cc3c(s1)CNC3)CC2)c1ccccc1` [Compound 255], the Ki in assay [1] and in assay [2] was less than 500 nM in each case.
Take `Cc1cc(C)cc(CNc2ncc3n(c2=O)[C@H](C(=O)NCc2cnc4c(c2)CNC4)CC3)c1` [Compound 108, (S)—N-((6,7-dihydro-5H-pyrrolo[3,4-b]pyridin-3-yl)methyl)-3-((3,5-dimethylbenzyl)amino)-4-oxo-4,6,7,8-tetrahydropyrrolo[1,2-a]pyrazine-6-carboxamide]: the Ki in assay [1] is less than 500 nM; in assay [2], 10000 to 25000 nM.
For `Cc1nc(N)ccc1CNC(=O)C1CCc2c(Cl)nc(NCc3cnccn3)c(=O)n21` (stereo not drawn) [Compound 149, N-((6-amino-2-methylpyridin-3-yl)methyl)-1-chloro-4-oxo-3-((pyrazin-2-ylmethyl)amino)-4,6,7,8-tetrahydropyrrolo[1,2-a]pyrazine-6-carboxamide], in that order: less than 500 nM and 2500 to 10000 nM.
With `Cc1nc(N)ccc1CNC(=O)[C@@H]1CCc2cnc(NCc3cccc(-n4cccn4)c3)c(=O)n21` [Compound 169, (S)-3-((3-(1H-pyrazol-1-yl)benzyl)amino)-N-((6-amino-2-methylpyridin-3-yl)methyl)-4-oxo-4,6,7,8-tetrahydropyrrolo[1,2-a]pyrazine-6-carboxamide trifluoroacetate], the Ki in assay [1] and in assay [2] was less than 500 nM throughout.
As for `Cc1ccc(C)c(CNc2ncc3n(c2=O)[C@H](C(=O)NCc2cc4cnc(C)cc4[nH]2)CC3)c1` [Compound 57, (S)-3-((2,5-dimethylbenzyl)amino)-N-((6-methyl-1H-pyrrolo[3,2-c]pyridin-2-yl)methyl)-4-oxo-4,6,7,8-tetrahydropyrrolo[1,2-a]pyrazine-6-carboxamide], the figures for the Ki in assay [1] and in assay [2] were less than 500 nM and 10000 to 25000 nM, respectively.
For `Cc1cccc(CNc2nc(Cl)c3n(c2=O)[C@H](C(=O)NCc2cc4c(s2)CNC4)CC3)c1F` [Compound 32, (S)-1-chloro-N-((5,6-dihydro-4H-thieno[2,3-c]pyrrol-2-yl)methyl)-3-((2-fluoro-3-methylbenzyl)amino)-4-oxo-4,6,7,8-tetrahydropyrrolo[1,2-a]pyrazine-6-carboxamide], in that order: less than 500 nM and 2500 to 10000 nM.
For `CC[C@@H](Nc1ncc2n(c1=O)[C@H](C(=O)NCc1cc3c(s1)CNC3)CC2)c1ccccc1C` [Compound 265, (S)-N-((5,6-dihydro-4H-thieno[2,3-c]pyrrol-2-yl)methyl)-4-oxo-3-(((R)-1-(o-tolyl)propyl)amino)-4,6,7,8-tetrahydropyrrolo[1,2-a]pyrazine-6-carboxamide trifluoroacetate], in that order: less than 500 nM and less than 500 nM.
In the same order, the values of `Cc1cc(F)cc(CNc2nc(-c3ccccc3)c3n(c2=O)[C@H](C(=O)NCc2ccc(N)nc2C)CC3)c1` [Compound 217, (S)-N-((6-amino-2-methylpyridin-3-yl)methyl)-3-((3-fluoro-5-methylbenzyl)amino)-4-oxo-1-phenyl-4,6,7,8-tetrahydropyrrolo[1,2-a]pyrazine-6-carboxamide trifluoroacetate] are less than 500 nM and greater than 25000 nM.

The values above are taken from patent publication US20250122225A1, “MASP-2 INHIBITORS AND METHODS OF USE” (Omeros Corporation, priority 2023, published 2025).
